Measurements: patent US20200346957A1, “BIOFILM […] TO MICROBIAL DESTRUCTION” (DRIPPING WET WATER, INC., priority 2019, published 2020)

System: biofilm within an infected cut
Experiment: Chlorine dioxide disrupts biofilm within an infected cut (Example 4)
Type: in vivo
Details: retreated every 12 hours, after 36 hours
Protocol: FIGS. 3A, 3B, 3C, and 3D are photographs that show the progression of an infected cut at 0 hours, 12 hours, 24 hours, and 36 hours, respectively.
FIGS. 4A, 4B, 4C, and 4D are photographs that show the progression of an infected cut at 0 hours, 12 hours, 24 hours, and 36 hours, respectively.
Chlorine Dioxide and CURAD Antibacterial Bandages (benzalkonium chloride) are used in this example. The first of two infected cuts is exposed to 100 ppm of chlorine dioxide for 1 minute before the benzalkonium chloride bandage is applied. The second infected cut is not exposed to chlorine dioxide before the benzalkonium chloride bandage is applied. Both cuts are retreated every 12 hours. […] FIG. 4 illustrates that after 36 hours the second cut's infection, not treated with chlorine dioxide, actually increases.

| Compound | progress of the cut's infection (FIG. 3) (infected cut exposed to 100 ppm chlorine dioxide for 1 minute before benzalkonium chloride bandage) | progress of the cut's infection (FIG. 4) (infected cut with benzalkonium chloride bandage only, no chlorine dioxide) |
| --- | --- | --- |
| [O][Cl+][O-] [chlorine dioxide] | significantly reduced | – |
| benzalkonium chloride | – | no apparent effect |
